Measurements published in US9695171B2, “3,4-disubstituted-1 H-pyrrolo[2,3-b]pyridines and 4,5-disubstituted-7H-pyrrolo[2,3-c]pyridazines as LRRK2 inhibitors” (Pfizer Inc., priority 2013, dated 2017).
pEC50: −log10 of the molar value.

target: T1, GST-tagged truncated LRRK2 (Homo sapiens, UniProt Q5S007); assay: LRRK2 kinase assay (Lantha Screen); type: biochemical; conditions: 1 mM ATP (head); a = geometric mean of >=4 determinations, b = single determination; read-out: LRRK2 LANTHA EC50 at 1 mM ATP; Geometric mean of 2-3 determinations unless otherwise indicated
T1 construct: GST-tagged truncated LRRK2 from Invitrogen (Cat # PV4874); GST; purchased Invitrogen PV4874
T1 sequence (Q5S007 970-2527 limits assumed): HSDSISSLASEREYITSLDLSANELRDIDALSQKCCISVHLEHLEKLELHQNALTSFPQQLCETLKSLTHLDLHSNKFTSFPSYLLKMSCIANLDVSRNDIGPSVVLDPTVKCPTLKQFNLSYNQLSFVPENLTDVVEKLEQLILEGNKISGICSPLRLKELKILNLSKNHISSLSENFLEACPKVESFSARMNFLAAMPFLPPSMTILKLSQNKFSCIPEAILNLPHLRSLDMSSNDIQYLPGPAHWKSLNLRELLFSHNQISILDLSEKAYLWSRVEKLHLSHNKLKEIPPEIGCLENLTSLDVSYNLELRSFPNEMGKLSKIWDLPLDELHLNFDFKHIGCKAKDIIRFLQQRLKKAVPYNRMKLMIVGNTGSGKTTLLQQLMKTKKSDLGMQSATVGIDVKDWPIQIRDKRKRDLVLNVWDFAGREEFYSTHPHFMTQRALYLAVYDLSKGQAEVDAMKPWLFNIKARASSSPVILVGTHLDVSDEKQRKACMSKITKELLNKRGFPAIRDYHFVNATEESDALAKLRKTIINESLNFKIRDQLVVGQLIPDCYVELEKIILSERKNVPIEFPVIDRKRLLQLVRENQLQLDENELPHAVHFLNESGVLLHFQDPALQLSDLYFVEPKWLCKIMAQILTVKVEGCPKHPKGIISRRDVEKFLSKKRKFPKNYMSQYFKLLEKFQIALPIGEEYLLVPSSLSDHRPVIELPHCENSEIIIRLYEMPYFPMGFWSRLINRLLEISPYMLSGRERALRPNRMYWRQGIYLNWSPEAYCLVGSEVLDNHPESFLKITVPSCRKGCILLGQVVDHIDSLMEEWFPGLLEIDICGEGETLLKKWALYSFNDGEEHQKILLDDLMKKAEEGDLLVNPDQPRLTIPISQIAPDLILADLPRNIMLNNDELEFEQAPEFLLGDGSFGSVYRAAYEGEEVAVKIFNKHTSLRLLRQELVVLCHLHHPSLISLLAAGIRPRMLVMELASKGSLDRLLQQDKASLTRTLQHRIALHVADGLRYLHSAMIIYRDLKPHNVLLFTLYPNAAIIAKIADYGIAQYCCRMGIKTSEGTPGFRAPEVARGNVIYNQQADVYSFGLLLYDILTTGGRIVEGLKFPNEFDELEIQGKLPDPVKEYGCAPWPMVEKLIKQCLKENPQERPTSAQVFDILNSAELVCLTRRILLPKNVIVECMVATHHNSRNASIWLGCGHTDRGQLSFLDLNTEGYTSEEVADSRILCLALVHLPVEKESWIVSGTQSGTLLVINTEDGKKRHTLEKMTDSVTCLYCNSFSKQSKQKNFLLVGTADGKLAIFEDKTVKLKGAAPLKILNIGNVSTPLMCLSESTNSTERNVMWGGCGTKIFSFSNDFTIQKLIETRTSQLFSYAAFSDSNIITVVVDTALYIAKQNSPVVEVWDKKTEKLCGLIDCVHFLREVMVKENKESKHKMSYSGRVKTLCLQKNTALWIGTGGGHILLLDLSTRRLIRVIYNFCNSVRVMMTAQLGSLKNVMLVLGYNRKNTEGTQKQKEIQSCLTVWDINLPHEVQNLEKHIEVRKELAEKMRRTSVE

Compound | pEC50
Cn1cc(-c2c[nH]c3nccc(-c4ccoc4)c23)cn1 [Example 106, 4-(furan-3-yl)-3-(1-methyl-1H-pyrazol-4-yl)-1H-pyrrolo[2,3-b]pyridine] | 6.84
Cn1cc(-c2c[nH]c3nccc(-c4ccc5scnc5c4)c23)cn1 [Example 107, 5-[3-(1-methyl-1H-pyrazol-4-yl)-1H-pyrrolo[2,3-b]pyridin-4-yl]-1,3-benzothiazole] | 6.77
Cn1cc(-c2c[nH]c3nccc(-c4cccc(C#N)c4)c23)cn1 [Example 109, 3-[3-(1-methyl-1H-pyrazol-4-yl)-1H-pyrrolo[2,3-b]pyridin-4-yl]benzonitrile] | 6.73
COCc1cccc(-c2ccnc3[nH]cc(-c4cnn(C)c4)c23)c1 [Example 111, 4-[3-(methoxymethyl)phenyl]-3-(1-methyl-1H-pyrazol-4-yl)-1H-pyrrolo[2,3-b]pyridine] | 6.63

More lines, now with the values ahead:

pEC50 | Compound
6.73 | Cn1cc(-c2c[nH]c3nccc(-c4cccc(CC#N)c4)c23)cn1 [Example 108, {3-[3-(1-methyl-1H-pyrazol-4-yl)-1H-pyrrolo[2,3-b]pyridin-4-yl]phenyl}acetonitrile]
6.70 | Cn1cc(-c2c[nH]c3nncc(N4CCOCC4)c23)cn1 [Example 110, 5-(1-methyl-1H-pyrazol-4-yl)-4-(morpholin-4-yl)-7H-pyrrolo[2,3-c]pyridazine]
6.63 | Cc1nnc(-c2cccc(-c3ccnc4[nH]cc(-c5cccc(C#N)c5)c34)c2)o1 [Example 112, 3-{4-[3-(5-methyl-1,3,4-oxadiazol-2-yl)phenyl]-1H-pyrrolo[2,3-b]pyridin-3-yl}benzonitrile]
